The values below come from patent US12503506B2, “Dual drug antibody-drug conjugates” (priority 2019, dated 2025).

One data set has as its system Namalwa wild type cells. Put plainly: MTT cytotoxicity assay in Namalwa wild type cells. Conditions: 72 h incubation, read-out: IC50 (cytotoxicity, cell viability by MTT). Format: cell-based. The protocol:
(§1) Namalwa 21 nM VCR (multidrug-resistant cells by exposure to vincristine (21 nM), and Namalwa wild type (ATCC CRL-1432) cells were cultured in ATCC-formulated RPMI-1640 medium with L-glutamine (2 mM), sodium bicarbonate (1.5 g L-1), glucose (4.5 g L^−1), HEPES (10 mM) and sodium pyruvate (1.0 mM). The media was supplemented with penicillin (100 U mL^−1) and streptomycin (100 μg mL^−1, Mediatech) and fetal bovine serum (FBS, 10%, BenchMark). Cells were maintained in a humid 5% CO2 atmosphere at 37° C. and subcultured every 2-3 days.
(§2) Cytotoxicity of PCTX and compounds 2, 2& 10, 15 and 17 was determined using the MTT assay. On the day of exposure, exponentially growing cells were plated at 25,000 cells/well in 160 μL in 96-well tissue culture plates (Nunc). Cells were then incubated with medium (control) or compounds (20 μL, 10× in cell culture medium) at the indicated final concentrations (0.1-1000 nM). At 68 h, MTT reagent (5 mg mL^−1 in PBS, 20 μL/well) was added to each well. The plate was further incubated at 37° C. At 72 h the plate was centrifuged at 1400 rpm for 10 min at 4° C. and supernatants were carefully removed. DMSO (100 μL/well) was added to dissolve the water-insoluble formazan salt. The absorbance was measured at 545 nm using a microplate reader (BMG Labtech). Data points were collected in triplicate and expressed as normalized values for untreated control cells (100%). […]
(Formazan colour is commonly taken as a measure of viable cells.)

In data set [1] the test system is multidrug-resistant Namalwa cell line (MDR+ve). Nature of the data set: MTT cytotoxicity assay in multidrug-resistant Namalwa cells. Format: cell-based. Conditions: 72 h. The protocol: as §1, §2

As usually defined, the IC50 is the midpoint of a concentration-inhibition curve. In the case of `CC(=O)O[C@H]1C(=O)[C@]2(C)[C@@H](O)CC3OC[C@@]3(OC(C)=O)[C@H]2[C@H](OC(=O)c2ccccc2)[C@]2(O)C[C@H](OC(=O)[C@H](OC(=O)CCC(=O)NCCOCCOCCNC(=O)OCC3C4CCC#CCCC43)[C@@H](NC(=O)c3ccccc3)c3ccccc3)C(C)=C1C2(C)C` (stereo partly drawn) [Compound 2, (4S,4aS,6R,9S,11S,12S,12aR,12bS)-9-(((19R)-19-((S)-benzamido(phenyl)methyl)-1-(bicyclo[6.1.0]non-4-yn-9-yl)-3,14,17-trioxo-2,7,10,18-tetraoxa-4,13-diazaicosan-20-oyl)oxy)-12-(benzoyloxy)-4,11-dihydroxy-4a,8,13,13-tetramethyl-5-oxo-3,4,4a,5,6,9,10,11,12,12a-decahydro-1H-7,11-methanocyclodeca[3,4]benzo[1,2-b]oxete-6,12b(2aH)-diyl diacetate], the half-inhibitory concentration (IC50) in the data set on Namalwa wild type cells was found to be 26 nM. For the same compound, the “activity (cytotoxicity) in MDR+ve cell line” value in data set [1] is listed as “no appreciable activity”.
Regarding `CC(=O)O[C@H]1C(=O)[C@@]2(C)[C@H]([C@H](OC(=O)c3ccccc3)[C@]3(O)C[C@H](OC(=O)[C@H](O)[C@@H](NC(=O)c4ccccc4)c4ccccc4)C(C)=C1C3(C)C)[C@]1(OC(C)=O)CO[C@@H]1C[C@@H]2O` [PCTX, Paclitaxel, reference compound], the IC50 with Namalwa wild type cells came to 2 nM.
